This note sets out measurements from US10662156B2, “Guanidine derivative and medical use thereof” (Toray Industries, Inc., priority 2016, dated 2020).

The target in this assay is recombinant GST fusion MALT1 (human MALT1) (Homo sapiens (Human), UniProt Q9UDY8). In words: Evaluation of inhibition of protease activity of MALT1 (cleavage of fluorescent peptide substrate Ac-LRSR-AMC). The format is biochemical. The note with it: substrate Ac-LRSR-AMC 20 μmol/L, 30° C. for 80 minutes. How it is done: The guanidine derivative (I) or the pharmacologically acceptable salt thereof was evaluated for its inhibition of the protease activity of MALT1 in an in vitro experimental system in accordance with the method described in the literature (Cancer Cell, 2012, Vol. 22, p. 825-837). Specifically, the evaluation was conducted by measuring the degree of reduction in fluorescence value by the compound relative to elevation in fluorescence value resulting from the cleavage of a fluorescently labeled artificial peptide substrate by recombinant MALT1.
A) Preparation of Recombinant GST Fusion MALT1:
Full-length cDNA of human MALT1 gene (GenBank accession No: AB026118.1) amplified by PCR was inserted in flame to a SalI site located downstream of GST gene in a pGEX6P3 vector (GE Healthcare Japan Corp.) to prepare a vector (hereinafter, referred to as a pGEX6P3-MALT1 vector). Subsequently, E. coli for protein expression (BL21-RIL-codon plus-DE3, Agilent Technologies, Inc.) was transformed with the pGEX6P3-MALT1 vector and then analyzed by ampicillin resistance screening and colony PCR to obtain an E. coli strain expressing recombinant GST fusion MALT1. Protein expression was induced with isopropyl-(3-thiogalactopyranoside. After the expression induction, E. coli precipitates were recovered by centrifugation from the E. coli culture solution, and the E. coli precipitates were homogenized and then centrifuged to obtain a supernatant. The supernatant was purified using GSTrap FF column (GE Healthcare Japan Corp.) to obtain recombinant GST fusion MALT1.
B) Evaluation of Inhibition of Protease Activity of MALT1:
To 89 μL of an enzyme solution ([…] GST fusion MALT1, 50 mmol/L MES, 150 mmol/L NaCl, 10% sucrose, 0.1% CHAPS, 10 mmol/L dithiothreitol, and 1 mol/L tri-ammonium citrate) per specimen, 1 μL of a test compound (DMSO-diluted solution) of each concentration was added to prepare a mixed solution. The mixed solution was incubated at room temperature for 30 minutes, followed by the measurement of the fluorescence value of the mixed solution (fluorescence value of the first measurement) (Ex: 380 nm, Em: 460 nm; Envision (Perkin Elmer Inc.)). Next, 10 μL of 200 μmol/L substrate (Ac-LRSR-AMC, SM Biochemicals LLC) was added (final concentration: 20 μmol/L) to the mixed solution, and the mixture was reacted by incubation at 30° C. for 80 minutes, followed by the measurement of the fluorescence value of the reaction solution (fluorescence value of the second measurement) (Ex: 380 nm, Em: 460 nm; Envision (Perkin Elmer Inc.)). A “well nonsupplemented with the test compound (only DMSO was added), nonsupplemented with the enzyme and supplemented with the substrate”, and a “well nonsupplemented with the test compound (only DMSO was added), supplemented with the enzyme and supplemented with the substrate” were established.
The fluorescence value of the first measurement was defined as “F1”, and the fluorescence value of the second measurement was defined as “F2”. F2−F1 of the “well nonsupplemented with the test compound (only DMSO was added), nonsupplemented with the enzyme and supplemented with the substrate” was defined as “Fback”, F2−F1 of the “well nonsupplemented with the test compound (only DMSO was added), supplemented with the enzyme and supplemented with the substrate” was defined as “Fpositive”, and F2−F1 of the “well supplemented with the test compound, supplemented with the enzyme and supplemented with the substrate” was defined as “Fsample”. The rate of inhibition (%) of the protease activity of MALT1 by the test compound was calculated according to the following expression. Rate of inhibition (%)=100×(1−(Fsample−Fback)/(Fpositive−Fback))

Counter-ions that a name gives are not always drawn.

Chain of recombinant GST fusion MALT1 (human MALT1) (Q9UDY8 whole entry, the tested form may be a part): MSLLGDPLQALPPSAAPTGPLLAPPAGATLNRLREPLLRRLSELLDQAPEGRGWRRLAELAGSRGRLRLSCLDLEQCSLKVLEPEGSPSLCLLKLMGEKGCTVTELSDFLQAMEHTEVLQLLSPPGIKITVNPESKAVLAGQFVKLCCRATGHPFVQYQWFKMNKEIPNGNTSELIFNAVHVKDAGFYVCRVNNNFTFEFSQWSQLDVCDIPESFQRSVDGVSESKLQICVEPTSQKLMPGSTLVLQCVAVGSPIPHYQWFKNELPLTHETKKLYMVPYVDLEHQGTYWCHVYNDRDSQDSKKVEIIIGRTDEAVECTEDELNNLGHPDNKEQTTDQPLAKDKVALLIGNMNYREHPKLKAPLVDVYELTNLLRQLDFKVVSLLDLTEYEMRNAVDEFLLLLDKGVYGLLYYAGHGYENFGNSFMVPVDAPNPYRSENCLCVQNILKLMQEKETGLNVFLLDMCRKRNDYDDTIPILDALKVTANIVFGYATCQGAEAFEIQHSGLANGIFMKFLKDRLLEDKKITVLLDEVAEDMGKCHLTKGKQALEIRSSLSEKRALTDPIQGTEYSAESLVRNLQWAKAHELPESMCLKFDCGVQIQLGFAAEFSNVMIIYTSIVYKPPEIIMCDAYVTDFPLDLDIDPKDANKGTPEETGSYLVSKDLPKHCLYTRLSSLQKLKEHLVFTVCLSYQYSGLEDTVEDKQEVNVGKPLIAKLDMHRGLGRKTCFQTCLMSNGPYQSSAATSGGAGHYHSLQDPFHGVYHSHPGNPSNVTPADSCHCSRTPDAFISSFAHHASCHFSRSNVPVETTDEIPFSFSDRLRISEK

`N#Cc1ccc(-c2ncc(CN/C(N)=N/S(=O)(=O)c3ccccc3)cc2-c2ccc(Cl)cc2)cc1` [Compound of Example 7, N-(amino(((5-(4-chlorophenyl)-6-(4-cyanophenyl)pyridin-3-yl)methyl)amino)methylene)benzenesulfonamide]: the 50% inhibitory concentration (IC50) is 192 nM.

Turning to `N#Cc1cccc(S(=O)(=O)/N=C(\N)NCc2cnc(-c3ccc(Cl)cc3)c(-c3ccc(Cl)cc3)c2)c1` [Compound of Example 47, N-(amino(((5,6-bis(4-chlorophenyl)pyridin-3-yl)methyl)amino)methylene)-3-cyanobenzenesulfonamide], the concentration for half-maximal inhibition (IC50) is 320 nM.

Take `N/C(=N\C(=O)c1ccccn1)NCc1cnc(-c2ccc(Cl)cc2)c(-c2ccc(Cl)cc2)c1` [Compound of Example 82, N-(amino(((5,6-bis(4-chlorophenyl)pyridin-3-yl)methyl)amino)methylene)picolinamide]: the 50% inhibitory concentration (IC50) worked out at 744 nM.

`N/C(=N\S(=O)(=O)c1ccccc1)NCc1cnc(-c2ccc(Cl)cc2)c(-c2cccc(Cl)c2)c1` [Compound of Example 15, N-(amino(((5-(3-chlorophenyl)-6-(4-chlorophenyl)pyridin-3-yl)methyl)amino)methylene)benzenesulfonamide]: the IC50 is 308 nM.

Take `N/C(=N\S(=O)(=O)C1CC1)NCc1cnc(-c2ccc(Cl)cc2)c(-c2ccc(Cl)cc2)c1` [Compound of Example 58, N-(amino(((5,6-bis(4-chlorophenyl)pyridin-3-yl)methyl)amino)methylene)cyclopropanesulfonamide]: the IC50 was 743 nM.

On to `N/C(=N\C(=O)c1ccc(Cl)cc1)NCc1cnc(-c2ccc(Cl)cc2)c(-c2ccc(Cl)cc2)c1` [Compound of Example 76, N-(amino(((5,6-bis(4-chlorophenyl)pyridin-3-yl)methyl)amino)methylene)-4-chlorobenzamide], for which the IC50 was 1510 nM.

Turning to `N/C(=N\S(=O)(=O)c1ccccc1)NCc1cnc(-c2ccc(Cl)cc2O)c(-c2ccc(Cl)cc2)c1` [Compound of Example 97, N-(amino(((6-(4-chloro-2-hydroxyphenyl)-5-(4-chlorophenyl)pyridin-3-yl)methyl)amino)methylene)benzenesulfonamide], the IC50 came to 922 nM.

Take `N/C(=N\S(=O)(=O)c1ccccc1)NCc1cnc(-c2ccc(OC(F)(F)F)cc2)c(-c2ccc(Cl)cc2)c1` [Compound of Example 10, N-(amino(((5-(4-chlorophenyl)-6-(4-(trifluoromethoxy)phenyl)pyridin-3-yl)methyl)amino)methylene)benzenesulfonamide]: the IC50 is 297 nM.

Regarding `COc1ccc(-c2cc(CN/C(N)=N/S(=O)(=O)c3ccccc3)cnc2-c2ccc(Cl)cc2)cc1` [Compound of Example 18, N-(Amino(((6-(4-chlorophenyl)-5-(4-methoxyphenyl)pyridin-3-yl)methyl)amino)methylene)benzenesulfonamide], the IC50 came out at 24 nM.

With `N/C(=N\C(=O)c1cccs1)NCc1cnc(-c2ccc(Cl)cc2)c(-c2ccc(Cl)cc2)c1` [Compound of Example 35, N-(amino(((5,6-bis(4-chlorophenyl)pyridin-3-yl)methyl)amino)methylene)thiophene-2-carboxamide Hydrochloride], the IC50 worked out at 314 nM.

Consider `N#Cc1ccc(S(=O)(=O)/N=C(\N)NCc2cnc(-c3ccc(Cl)cc3)c(-c3ccc(Cl)cc3)c2)cn1` [Compound of Example 52, N-(amino(((5,6-bis(4-chlorophenyl)pyridin-3-yl)methyl)amino)methylene)-6-cyanopyridine-3-sulfonamide], for which the IC50 came out at 390 nM.

In the case of `CC(N/C(N)=N/S(=O)(=O)c1ccccc1)c1cnc(-c2ccc(Cl)cc2)c(-c2ccc(Cl)cc2)c1` (stereo not drawn) [Compound of Example 46, N-(amino((1-(5,6-bis(4-chlorophenyl)pyridin-3-yl)ethyl)amino)methylene)benzenesulfonamide], the IC50 amounted to 539 nM.

Turning to `N/C(=N\S(=O)(=O)c1ccccc1)NCc1cnc(-c2ccc(Cl)cc2)c(-c2ccc(F)cc2)c1` [Compound of Example 20, N-(amino(((6-(4-chlorophenyl)-5-(4-fluorophenyl)pyridin-3-yl)methyl)amino)methylene)benzenesulfonamide], the IC50 turned out to be 1110 nM.

In the case of `N/C(=N\S(=O)(=O)c1ccccc1)NCc1cnc(-c2ccc(C(F)(F)F)cc2)c(-c2ccccc2)c1` [Compound of Example 93, N-(amino(((5-phenyl-6-(4-(trifluoromethyl)phenyl)pyridin-3-yl)methyl)amino)methylene)benzenesulfonamide], the concentration for half-maximal inhibition (IC50) amounted to 1070 nM.

Take `N/C(=N\S(=O)(=O)c1ccccc1)NCc1cnc(-c2ccccc2)c(-c2ccc(Cl)cc2)c1` [Compound of Example 3, N-(amino(((5-(4-chlorophenyl)-6-phenylpyridin-3-yl)methyl)amino)methylene)benzenesulfonamide]: the IC50 was 705 nM.

For the compound `N/C(=N\S(=O)(=O)c1cccc(F)c1)NCc1cnc(-c2ccc(Cl)cc2)c(-c2ccc(Cl)cc2)c1` [Compound of Example 27, N-(amino(((5,6-bis(4-chlorophenyl)pyridin-3-yl)methyl)amino)methylene)-3-fluorobenzenesulfonamide], the IC50 worked out at 532 nM.

With `N/C(=N\S(=O)(=O)c1ccccc1)NCc1cnc(-c2ccc(O)cc2)c(-c2ccc(Cl)cc2)c1` [Compound of Example 95, N-(amino(((5-(4-chlorophenyl)-6-(4-hydroxyphenyl)pyridin-3-yl)methyl)amino)methylene)benzenesulfonamide Hydrochloride], the IC50 was 1030 nM.

As to `N/C(=N\S(=O)(=O)c1ccccc1)NCc1ncc(-c2ccc(Cl)cc2)c(-c2ccc(Cl)cc2)n1` [Compound of Example 87, N-(amino(((4,5-bis(4-chlorophenyl)pyrimidin-2-yl)methyl)amino)methylene)benzenesulfonamide], the IC50 was 72 nM.

Take `N/C(=N\C(=O)c1ccc(C(F)(F)F)cc1)NCc1cnc(-c2ccc(Cl)cc2)c(-c2ccc(Cl)cc2)c1` [Compound of Example 77, N-(amino(((5,6-bis(4-chlorophenyl)pyridin-3-yl)methyl)amino)methylene)-4-trifluoromethylbenzamide]: the IC50 worked out at 817 nM.

Regarding `N/C(=N\S(=O)(=O)c1ccccc1)NCc1cnc(-c2ccccc2)c(-c2ccc(C(F)(F)F)cc2)c1` [Compound of Example 92, N-(amino(((6-phenyl-5-(4-(trifluoromethyl)phenyl)pyridin-3-yl)methyl)amino)methylene)benzenesulfonamide], the IC50 is 1040 nM.

For the compound `N/C(=N\S(=O)(=O)c1ccccc1)NCc1cc(-c2ccc(Cl)cc2)c(-c2ccc(Cl)cc2)nc1O` [Compound of Example 91, N-(amino(((5,6-bis(4-chlorophenyl)-2-hydroxypyridin-3-yl)methyl)amino)methylene)benzenesulfonamide], the IC50 was determined as 112 nM.

On to `N/C(=N\S(=O)(=O)c1ccccc1)NCc1cnc(-c2ccc(Cl)cc2)c(-c2ccccc2Cl)c1` [Compound of Example 16, N-(amino(((5-(2-chlorophenyl)-6-(4-chlorophenyl)pyridin-3-yl)methyl)amino)methylene)benzenesulfonamide], for which the IC50 worked out at 2410 nM.

Consider `N/C(=N\S(=O)(=O)c1ccccc1)NCc1cnc(-c2ccc(Cl)cc2F)c(-c2ccc(Cl)cc2)c1` [Compound of Example 36, N-(amino(((6-(4-chloro-2-fluorophenyl)-5-(4-chlorophenyl)pyridin-3-yl)methyl)amino)methylene)benzenesulfonamide], for which the IC50 turned out to be 237 nM.

Consider `NC(=NS(=O)(=O)c1ccccc1)NCc1ccc(-c2ccc(Cl)cc2)c(-c2ccc(Cl)cc2)n1` [Compound of Example 45, N-(amino(((5,6-bis(4-chlorophenyl)pyridin-2-yl)methyl)amino)methylene)benzenesulfonamide Hydrochloride], for which the IC50 was determined as 221 nM.

A word on the IC50: it is the point on the concentration scale where inhibition reaches its midpoint.
